# Measured values reported in article PMC4971072, “Chemically Homogenous Compounds with Antagonistic Properties at All α1-Adrenoceptor Subtypes but not β1-Adrenoceptor Attenuate Adrenaline-Induced Arrhythmia in Rats” (Frontiers in Pharmacology, 2016).
# Counter-ions that a name gives are not always drawn. Marks after values point to notes of the source that are not given here.
# Experiments:
# [1] = system: lipid peroxidation in rat brain homogenate; assay: Lipid peroxidation in rat brain homogenate (TBARS), antioxidant effect; assay type: biochemical; conditions: 10^−3 M
# β1-adrenergic receptor = target: T1, β1-adrenergic receptor (Rattus norvegicus, UniProt P18090); assay: β1-adrenoceptor radioligand binding assay ([3H]-CGP-12177, rat cerebral cortex); conditions: read-out: Adrenergic receptors Ki β1
# T1 construct: The brains were homogenized in 20 volumes of an ice-cold 50 mM Tris-HCl buffer; from tissue; host or cells: rat cerebral cortex membranes
# Experimental: The α1- and β1-adrenoceptor radioligand binding assay was performed on rat cerebral cortex. […] The cell pellet was resuspended in the Tris–HCl buffer and centrifuged again. Radioligand binding assays were performed in plates (MultiScreen/Millipore). […] The incubation was terminated by rapid filtration through glass fiber filters (Whatman GF/C) using a vacuum manifold (Millipore). The filters were then washed twice with the assay buffer and placed in scintillation vials with a liquid scintillation cocktail. […] All the assays were made in duplicate and the inhibitory constants (Ki) were estimated.
# LO–labeled ligand concentration, KD–dissociation constant of labeled ligand
# α1D-adrenoreceptors = target: T2, α1D-adrenoreceptors (Rattus norvegicus, UniProt P23944); assay: Functional bioassay, isolated rat aorta, noradrenaline contraction; assay type: biochemical; parameters: had aorta removed, denuded of endothelium and incubated in the Krebs-Henseleit solution; from tissue; host or cells: isolated rat aorta rings; conditions: noradrenaline as agonist
# T2 sequence (P23944 1-561): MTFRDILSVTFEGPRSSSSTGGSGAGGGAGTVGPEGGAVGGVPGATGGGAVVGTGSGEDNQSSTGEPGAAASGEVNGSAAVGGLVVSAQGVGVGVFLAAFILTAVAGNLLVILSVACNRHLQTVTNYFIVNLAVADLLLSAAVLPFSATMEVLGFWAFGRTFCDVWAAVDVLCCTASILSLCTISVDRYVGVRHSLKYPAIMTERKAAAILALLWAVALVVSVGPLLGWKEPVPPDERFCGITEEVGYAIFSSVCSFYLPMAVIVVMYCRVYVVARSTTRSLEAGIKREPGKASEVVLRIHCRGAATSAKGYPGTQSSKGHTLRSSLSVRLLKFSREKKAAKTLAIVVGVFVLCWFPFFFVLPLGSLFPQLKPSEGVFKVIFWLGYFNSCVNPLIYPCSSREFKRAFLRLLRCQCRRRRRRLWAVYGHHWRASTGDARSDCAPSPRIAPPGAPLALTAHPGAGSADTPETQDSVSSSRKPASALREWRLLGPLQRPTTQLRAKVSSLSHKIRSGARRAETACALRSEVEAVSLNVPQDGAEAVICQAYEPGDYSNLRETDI
# Experimental: Finally, the influence on α1D-adrenoreceptors was investigated using the isolated rat aorta. […] The aorta rings were maintained at optimal tension of 2.0 g. During 3 h of equilibration tissues were stimulated with noradrenaline three times (0.3 μM). Two cumulative concentration-response curves to noradrenaline, at an interval of 60 min, were established on each tissue both in the presence and absence of antagonist. The incubation with antagonists went on for 30 min. The experiments were carried out in the constant presence of yohimbine (0.1 μM) and propranolol (1 μM) to block α2- and β-adrenoceptors, respectively.
# Data are means ± S.E.M. of at least 4 separate experiments. To establish Hill slopes for the agonist concentration–response curves and calculate EC50 values, curves were fitted to all the data by non-linear regression. The EC50 value in the presence and absence of antagonists was used to ascertain the concentration ratio (CR). Schild analysis was performed.
# normal ECG in rats = assay: The effect on normal electrocardiogram in rats; assay type: in vivo, rat; conditions: anesthetized rats
# Experimental: The experiment was carried out to exclude the influence of tested compounds on normal ECG. […] The influence on QRS complex, PQ interval, heart rate (RR), and QTc interval was determined.
# [2] = i.p. at ED84, 0 min (initial values)
# T1 sequence (P18090 whole entry): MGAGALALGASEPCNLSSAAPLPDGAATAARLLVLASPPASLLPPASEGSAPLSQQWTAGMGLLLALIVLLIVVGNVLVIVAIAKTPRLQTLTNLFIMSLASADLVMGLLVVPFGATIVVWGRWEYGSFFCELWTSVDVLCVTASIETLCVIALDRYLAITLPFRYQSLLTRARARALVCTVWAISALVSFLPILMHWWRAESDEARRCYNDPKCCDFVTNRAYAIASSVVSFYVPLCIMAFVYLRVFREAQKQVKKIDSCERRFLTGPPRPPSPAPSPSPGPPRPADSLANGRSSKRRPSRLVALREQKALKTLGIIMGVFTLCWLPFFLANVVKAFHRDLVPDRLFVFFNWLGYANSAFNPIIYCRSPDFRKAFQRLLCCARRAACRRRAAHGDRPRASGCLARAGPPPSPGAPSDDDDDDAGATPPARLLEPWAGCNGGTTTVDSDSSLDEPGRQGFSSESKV
smiles,measurement,setting,value
"COc1ccccc1N1CCN(CCCOc2cc(C)cc(C)c2C)CC1 [HBK-19, 1N-[3-(2,3,5-trimethylphenoxy)propyl]-4N-(2-methoxyphenyl)piperazine hydrochloride]",inhibition of lipid peroxidation (in words),[1],inhibited lipid peroxidation
same,% reduction of absorbance (% antioxidant activity),[1]; TBARs at 532 nm,22.62%
same,Absorbance,[1]; TBARs at 532 nm,0.698 ± 0.007
same,Ki,β1-adrenergic receptor,> 10000 nM
same,"Schild slope ± S.E.M., α1D",α1D-adrenoreceptors,1.03 ± 0.09
same,Kb,"α1D-adrenoreceptors; read-out: pA2 ± S.E.M., α1D (converted)",4.9 nM
same,"influence on ECG parameters (PQ interval, QRS complex, QTc interval)",normal ECG in rats; i.p. at ED84,"without the influence on PQ interval, QRS complex, or QTc interval"
same,reduction of heart rate,"normal ECG in rats; i.p. at ED84, over the period of significant effect vs. initial values",21−22%
same,Beats/min (ECG),normal ECG in rats; [2],355.3 ± 19.7 Beats/min
same,PQ (ECG),normal ECG in rats; [2],56.7 ± 0.7 ms
same,QRS (ECG),normal ECG in rats; [2],35.7 ± 1.0 ms
same,QT (ECG),normal ECG in rats; [2],76.4 ± 8.2 ms
same,"QTc (ECG, Bazett)",normal ECG in rats; [2],186.9 ± 24.6 ms
same,Beats/min (ECG),"normal ECG in rats; i.p. at ED84, 5 min",349.7 ± 25.3 Beats/min
same,PQ (ECG),"normal ECG in rats; i.p. at ED84, 5 min",56.6 ± 0.0 ms
same,QRS (ECG),"normal ECG in rats; i.p. at ED84, 5 min",34.7 ± 1.6 ms
same,QT (ECG),"normal ECG in rats; i.p. at ED84, 5 min",76.9 ± 1.1 ms
same,"QTc (ECG, Bazett)","normal ECG in rats; i.p. at ED84, 5 min",185.5 ± 9.5 ms
same,Beats/min (ECG),"normal ECG in rats; i.p. at ED84, 10 min",339.1 ± 21.0 Beats/min
same,PQ (ECG),"normal ECG in rats; i.p. at ED84, 10 min",56.0 ± 0.0 ms
same,QRS (ECG),"normal ECG in rats; i.p. at ED84, 10 min",34.0 ± 0.3 ms
same,QT (ECG),"normal ECG in rats; i.p. at ED84, 10 min",77.5 ± 0.5 ms
same,"QTc (ECG, Bazett)","normal ECG in rats; i.p. at ED84, 10 min",184.2 ± 6.9 ms
same,Beats/min (ECG),"normal ECG in rats; i.p. at ED84, 15 min",280.1 ± 1.1^c Beats/min
same,PQ (ECG),"normal ECG in rats; i.p. at ED84, 15 min",58.2 ± 1.8 ms
same,QRS (ECG),"normal ECG in rats; i.p. at ED84, 15 min",32.0 ± 1.2 ms
same,QT (ECG),"normal ECG in rats; i.p. at ED84, 15 min",82.2 ± 2.2 ms
same,"QTc (ECG, Bazett)","normal ECG in rats; i.p. at ED84, 15 min",177.6 ± 4.4 ms
same,Beats/min (ECG),"normal ECG in rats; i.p. at ED84, 20 min",277.2 ± 5.0^c Beats/min
same,PQ (ECG),"normal ECG in rats; i.p. at ED84, 20 min",60.1 ± 1.3 ms
same,QRS (ECG),"normal ECG in rats; i.p. at ED84, 20 min",32.7 ± 0.4 ms
same,QT (ECG),"normal ECG in rats; i.p. at ED84, 20 min",84.3 ± 1.1 ms
same,"QTc (ECG, Bazett)","normal ECG in rats; i.p. at ED84, 20 min",181.1 ± 4.1 ms
same,Beats/min (ECG),"normal ECG in rats; i.p. at ED84, 30 min",278.2 ± 6.7^c Beats/min
same,PQ (ECG),"normal ECG in rats; i.p. at ED84, 30 min",60.1 ± 1.7 ms
same,QRS (ECG),"normal ECG in rats; i.p. at ED84, 30 min",34.3 ± 0.2 ms
same,QT (ECG),"normal ECG in rats; i.p. at ED84, 30 min",82.2 ± 0.4 ms
same,"QTc (ECG, Bazett)","normal ECG in rats; i.p. at ED84, 30 min",177.0 ± 3.0 ms
same,Beats/min (ECG),"normal ECG in rats; i.p. at ED84, 40 min",332.8 ± 18.9 Beats/min
same,PQ (ECG),"normal ECG in rats; i.p. at ED84, 40 min",59.3 ± 0.7 ms
same,QRS (ECG),"normal ECG in rats; i.p. at ED84, 40 min",32.0 ± 3.1 ms
same,QT (ECG),"normal ECG in rats; i.p. at ED84, 40 min",81.5 ± 2.5 ms
same,"QTc (ECG, Bazett)","normal ECG in rats; i.p. at ED84, 40 min",192.2 ± 11.2 ms
same,Beats/min (ECG),"normal ECG in rats; i.p. at ED84, 50 min",396.8 ± 31.8 Beats/min
same,PQ (ECG),"normal ECG in rats; i.p. at ED84, 50 min",55.1 ± 0.3 ms
same,QRS (ECG),"normal ECG in rats; i.p. at ED84, 50 min",36.0 ± 1.5 ms
same,QT (ECG),"normal ECG in rats; i.p. at ED84, 50 min",76.5 ± 0.5 ms
same,"QTc (ECG, Bazett)","normal ECG in rats; i.p. at ED84, 50 min",196.2 ± 6.9 ms
same,Beats/min (ECG),"normal ECG in rats; i.p. at ED84, 60 min",398.0 ± 32.4 Beats/min
same,PQ (ECG),"normal ECG in rats; i.p. at ED84, 60 min",56.3 ± 1.1 ms
same,QRS (ECG),"normal ECG in rats; i.p. at ED84, 60 min",30.3 ± 1.1 ms
same,QT (ECG),"normal ECG in rats; i.p. at ED84, 60 min",80.2 ± 0.4 ms
same,"QTc (ECG, Bazett)","normal ECG in rats; i.p. at ED84, 60 min",206.3 ± 9.6 ms
